The structures appear in SMILES notation.

This assay deals with T1, ERα protein (HiBiT-tagged) in ESR1_HiBiT KI MCF7 cells (Homo sapiens, UniProt P03372).
T1 sequence (P03372 1-595): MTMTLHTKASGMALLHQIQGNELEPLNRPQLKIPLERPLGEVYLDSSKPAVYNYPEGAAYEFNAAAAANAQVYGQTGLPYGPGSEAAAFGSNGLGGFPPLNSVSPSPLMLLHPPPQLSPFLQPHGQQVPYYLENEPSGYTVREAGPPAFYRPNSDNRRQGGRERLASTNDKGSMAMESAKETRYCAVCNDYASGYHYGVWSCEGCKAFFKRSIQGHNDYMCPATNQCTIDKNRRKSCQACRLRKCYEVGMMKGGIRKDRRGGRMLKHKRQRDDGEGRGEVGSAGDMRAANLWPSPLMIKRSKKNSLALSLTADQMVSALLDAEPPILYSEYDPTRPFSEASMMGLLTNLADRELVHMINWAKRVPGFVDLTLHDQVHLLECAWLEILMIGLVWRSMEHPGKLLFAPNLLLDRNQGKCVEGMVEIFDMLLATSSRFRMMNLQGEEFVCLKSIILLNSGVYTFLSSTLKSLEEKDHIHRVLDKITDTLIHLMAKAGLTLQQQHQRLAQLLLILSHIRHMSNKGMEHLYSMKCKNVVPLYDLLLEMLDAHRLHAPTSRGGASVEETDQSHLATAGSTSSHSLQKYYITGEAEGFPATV
Briefly: Nano Glo HiBiT Lytic Degradation Assay. It counts as cell-based. The following applies: 6 hours with compound, 14-point dose response 1:3, bell-shape curve fit, half-maximal effect of first Hill model, read-out: MCF7 ESR1 HiBiT - (DC50). An outline of the steps:
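ESR1_HiBiT knock-in MCF7 cells were seeded 24 h before treatment, then exposed to compounds for 6 h at 37° C (14-point 1:3 curves, 10 mM top stock, 0.1% DMSO final, duplicates). HiBiT-ERα was read by lytic LgBiT luminescence, background-subtracted and normalized to DMSO. DC50 was taken from the half-maximal point of the first Hill component of a bell-shaped fit.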
In general terms: The HiBiT peptide binds its large partner to form an active luciferase.

Regarding `O=C1CCC(c2ccc(N3CC[C@@H]4[C@H]3CCN4CC3CCN(c4ccc([C@@H]5c6ccc(O)cc6CC[C@@H]5c5ccccc5)cc4)CC3)cc2)C(=O)N1` (stereo partly drawn) [Compound I-176, 3-(4-((3aR,6aR)-4-((1-(4-((1R,2S)-6-hydroxy-2-phenyl-1,2,3,4-tetrahydronaphthalen-1-yl)phenyl)piperidin-4-yl)methyl)hexahydropyrrolo[3,2-b]pyrrol-1 (2H)-yl)phenyl)piperidine-2,6-dione], the DC50 (in general, the concentration at which degradation of the target reaches its halfway point) turned out to be 3300 nM.
Turning to `O=C1CCC(c2ccc(N3CC[C@H]4[C@@H]3CCN4CC3CCN(c4ccc([C@@H]5c6ccc(O)cc6CC[C@@H]5c5ccccc5)cc4)CC3)cc2)C(=O)N1` (stereo partly drawn) [Compound I-177, 3-(4-((3aS,6aS)-4-((1-(4-((1R,2S)-6-hydroxy-2-phenyl-1,2,3,4-tetrahydronaphthalen-1-yl)phenyl)piperidin-4-yl)methyl)hexahydropyrrolo[3,2-b]pyrrol-1 (2H)-yl)phenyl)piperidine-2,6-dione], the 50% degradation concentration (DC50) is at least 10000 nM.
To `O=C1CCC(c2cccc(N3CC[C@H]4[C@@H]3CCN4CC3CCN(c4ccc([C@@H]5c6ccc(O)cc6CC[C@@H]5c5ccccc5)cc4)CC3)c2)C(=O)N1` (stereo partly drawn) [Compound I-179, 3-(3-((3aS,6aS)-4-((1-(4-((1R,2S)-6-hydroxy-2-phenyl-1,2,3,4-tetrahydronaphthalen-1-yl)phenyl)piperidin-4-yl)methyl)hexahydropyrrolo[3,2-b]pyrrol-1 (2H)-yl)phenyl)piperidine-2,6-dione] belongs 34 nM; to `O=C1CCC(c2ccc(N3CCC4(CCN(CC5CCN(c6ccc([C@@H]7c8ccc(O)cc8CC[C@@H]7c7ccccc7)cc6)CC5)CC4)CC3)cc2)C(=O)N1` (stereo partly drawn) [Compound I-180, 3-[4-[9-[[1-[4-[(1R,2S)-6-hydroxy-2-phenyl-tetralin-1-yl]phenyl]-4-piperidyl]methyl]-3,9-diazaspiro[5.5]undecan-3-yl]phenyl]piperidine-2,6-dione], 1.3 nM; to `O=C1CCC(c2ccc(C3CC4(C3)CN(CC3CCN(c5ccc([C@@H]6c7ccc(O)cc7CC[C@@H]6c6ccccc6)cc5)CC3)C4)cc2)C(=O)N1` (stereo partly drawn) [Compound I-182, 3-(4-(2-((1-(4-((1R,2S)-6-hydroxy-2-phenyl-1,2,3,4-tetrahydronaphthalen-1-yl)phenyl)piperidin-4-yl)methyl)-2-azaspiro[3.3]heptan-6-yl)phenyl)piperidine-2,6-dione], 2 nM.
`O=C1CCC(c2cccc(N3CCC4(CCN(CC5CCN(c6ccc([C@@H]7c8ccc(O)cc8CC[C@@H]7c7ccccc7)cc6)CC5)CC4)CC3)c2)C(=O)N1` (stereo partly drawn) [Compound I-183, 3-(3-(9-((1-(4-((1R,2S)-6-hydroxy-2-phenyl-1,2,3,4-tetrahydronaphthalen-1-yl)phenyl)piperidin-4-yl)methyl)-3,9-diazaspiro[5.5]undecan-3-yl)phenyl)piperidine-2,6-dione]: the DC50 was at least 10000 nM.
With `Cn1nc(C2CCC(=O)NC2=O)c2ccc(N3CCN(CC4CCN(c5ccc([C@@H]6c7ccc(O)cc7CC[C@@H]6c6ccccc6)cc5)CC4)CC3)cc21` (stereo partly drawn) [Compound I-188, 3-(6-(4-((1-(4-((1R,2S)-6-hydroxy-2-phenyl-1,2,3,4-tetrahydronaphthalen-1-yl)phenyl)piperidin-4-yl)methyl)piperazin-1-yl)-1-methyl-1H-indazol-3-yl)piperidine-2,6-dione], the DC50 was 1.23 nM.
As for `Cn1nc(C2CCC(=O)NC2=O)c2cccc(N3CCN(CC4CCN(c5ccc([C@@H]6c7ccc(O)cc7CC[C@@H]6c6ccccc6)cc5)CC4)CC3)c21` (stereo partly drawn) [Compound I-189, 3-(7-(4-((1-(4-((1R,2S)-6-hydroxy-2-phenyl-1,2,3,4-tetrahydronaphthalen-1-yl)phenyl)piperidin-4-yl)methyl)piperazin-1-yl)-1-methyl-1H-indazol-3-yl)piperidine-2,6-dione], the 50% degradation concentration (DC50) is 2 nM.
Regarding `Cn1c(=O)n(C2CCC(=O)NC2=O)c2ccc(N3CCN(CC4CCN(c5ccc([C@@H]6c7ccc(O)cc7CC[C@@H]6c6ccccc6)cc5)CC4)CC3)cc21` (stereo partly drawn) [Compound I-190, 3-(5-(4-((1-(4-((1R,2S)-6-hydroxy-2-phenyl-1,2,3,4-tetrahydronaphthalen-1-yl)phenyl)piperidin-4-yl)methyl)piperazin-1-yl)-3-methyl-2-oxo-2,3-dihydro-1H-benzo[d]imidazol-1-yl)piperidine-2,6-dione], the DC50 amounted to 0.4 nM.
The result for `Cn1c(=O)n(C2CCC(=O)NC2=O)c2cccc(N3CCN(CC4CCN(c5ccc([C@@H]6c7ccc(O)cc7CC[C@@H]6c6ccccc6)cc5)CC4)CC3)c21` (stereo partly drawn) [Compound I-191, 3-(4-(4-((1-(4-((1R,2S)-6-hydroxy-2-phenyl-1,2,3,4-tetrahydronaphthalen-1-yl)phenyl)piperidin-4-yl)methyl)piperazin-1-yl)-3-methyl-2-oxo-2,3-dihydro-1H-benzo[d]imidazol-1-yl)piperidine-2,6-dione] reads 1.09 nM; that for `O=C1CC[C@H](N2Cc3cc(N4CCN(CC5CCN(c6ccc([C@@H]7c8ccc(O)cc8C(F)(F)C[C@@H]7c7ccc(F)cc7)cc6)CC5)CC4)ccc3C2=O)C(=O)N1` [Compound I-192, (S)-3-(5-(4-((1-(4-((1R,2S)-4,4-difluoro-2-(4-fluorophenyl)-6-hydroxy-1,2,3,4-tetrahydronaphthalen-1-yl)phenyl)piperidin-4-yl)methyl)piperazin-1-yl)-1-oxoisoindolin-2-yl)piperidine-2,6-dione], 0.62 nM.
To `O=C1CC[C@H](N2Cc3cc(N4CCN(CC5CCN(c6ccc([C@@H]7c8ccc(O)cc8C(F)(F)C[C@@H]7c7ccccc7)cc6F)CC5)CC4)ccc3C2=O)C(=O)N1` [Compound I-194, (S)-3-(5-(4-((1-(4-((1R,2S)-4,4-difluoro-6-hydroxy-2-phenyl-1,2,3,4-tetrahydronaphthalen-1-yl)-2-fluorophenyl)piperidin-4-yl)methyl)piperazin-1-yl)-1-oxoisoindolin-2-yl)piperidine-2,6-dione] belongs 0.41 nM.
Take `O=C1CC[C@H](N2Cc3cc(N4CCN(CC5CCN(c6ccc([C@@H]7c8ccc(O)cc8C(F)(F)C[C@@H]7CC7CCCC7)cc6)CC5)CC4)ccc3C2=O)C(=O)N1` [Compound I-196, (3S)-3-[5-[4-[[1-[4-[(1R,2S)-2-(cyclopentylmethyl)-4,4-difluoro-6-hydroxy-tetralin-1-yl]phenyl]-4-piperidyl]methyl]piperazin-1-yl]-1-oxo-isoindolin-2-yl]piperidine-2,6-dione]: the half-maximal degradation concentration (DC50) was 2 nM.
For `CC(C)C[C@H]1CC(F)(F)c2cc(O)ccc2[C@H]1c1ccc(N2CCC(CN3CCN(c4ccc5c(c4)CN([C@H]4CCC(=O)NC4=O)C5=O)CC3)CC2)cc1` [Compound I-197, (S)-3-(5-(4-((1-(4-((1R,2S)-4,4-difluoro-6-hydroxy-2-isobutyl-1,2,3,4-tetrahydronaphthalen-1-yl)phenyl)piperidin-4-yl)methyl)piperazin-1-yl)-1-oxoisoindolin-2-yl)piperidine-2,6-dione], the DC50 was determined as 0.49 nM.
Turning to `O=C1CC[C@H](N2Cc3cc(N4CCN(CC5CCN(c6ccc([C@@H]7c8ccc(O)cc8C(F)(F)C[C@@H]7C7CCCC7)cc6)CC5)CC4)ccc3C2=O)C(=O)N1` [Compound I-198, (S)-3-(5-(4-((1-(4-((1R,2R)-2-cyclopentyl-4,4-difluoro-6-hydroxy-1,2,3,4-tetrahydronaphthalen-1-yl)phenyl)piperidin-4-yl)methyl)piperazin-1-yl)-1-oxoisoindolin-2-yl)piperidine-2,6-dione], the 50% degradation concentration (DC50) was 0.93 nM.

The values are drawn from US20250388565A1, “ESTROGEN RECEPTOR ALPHA DEGRADERS AND METHODS OF USE THEREOF” (Relay Therapeutics, Inc., priority 2022, published 2025).
